Measurements as given in paper PMC3789174 (Cell Death & Disease, 2013).

Tested on: PBMCs from CLL patients
Test: Peptide-induced cell death, PI staining and FACS
Format: cell-based, human
Conditions: relatively high concentrations; data not shown

Nc1nc(F)nc2c1ncn2[C@@H]1O[C@H](CO)[C@@H](O)[C@@H]1O [fludarabine]
cell killing effect on PBMCs isolated from CLL patients: only a weak cell killing effect
